Source: publication PMC10176470, “Engaging a Non-catalytic Cysteine Residue Drives Potent and Selective Inhibition of Caspase-6” (Journal of the American Chemical Society, 2023)

Legend:
Type in all cases: cell-based
[1] = molecular target: proteins of HEK293T cells transiently overexpressing caspase-6 (Homo sapiens, UniProt P40939); conditions: exp_ref Probe; protein HADHA (P40939); analysis C6
[2] = molecular target: proteins of HEK293T cells transiently overexpressing caspase-6 (Homo sapiens, UniProt P12956); conditions: protein XRCC6 (P12956)
[3] = molecular target: T1, proteins of HEK293T cells transiently overexpressing caspase-6 (Homo sapiens, UniProt O00567); conditions: exp_ref Probe; protein NOP56 (O00567); analysis C6
T1 sequence (O00567 1-594): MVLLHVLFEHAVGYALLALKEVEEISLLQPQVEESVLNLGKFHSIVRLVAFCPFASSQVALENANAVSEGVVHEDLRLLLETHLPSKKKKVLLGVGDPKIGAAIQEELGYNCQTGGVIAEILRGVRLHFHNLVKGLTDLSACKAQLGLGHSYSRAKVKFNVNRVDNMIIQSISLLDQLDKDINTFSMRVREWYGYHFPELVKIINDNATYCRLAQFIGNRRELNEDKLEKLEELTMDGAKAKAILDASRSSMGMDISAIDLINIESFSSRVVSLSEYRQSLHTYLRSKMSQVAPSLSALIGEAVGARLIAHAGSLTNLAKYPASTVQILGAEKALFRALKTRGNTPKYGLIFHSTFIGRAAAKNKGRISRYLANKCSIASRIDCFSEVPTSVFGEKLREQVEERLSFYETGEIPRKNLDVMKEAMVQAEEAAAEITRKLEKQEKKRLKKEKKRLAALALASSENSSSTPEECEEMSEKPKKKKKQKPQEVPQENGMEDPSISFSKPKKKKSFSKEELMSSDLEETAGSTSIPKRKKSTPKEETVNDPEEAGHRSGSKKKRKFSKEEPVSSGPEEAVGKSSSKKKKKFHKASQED

[4] = molecular target: proteins of HEK293T cells transiently overexpressing caspase-6 (Homo sapiens, UniProt P21333)
[5] = molecular target: T2, proteins of HEK293T cells transiently overexpressing caspase-6 (Homo sapiens, UniProt P00505)
T2 sequence (P00505 30-430): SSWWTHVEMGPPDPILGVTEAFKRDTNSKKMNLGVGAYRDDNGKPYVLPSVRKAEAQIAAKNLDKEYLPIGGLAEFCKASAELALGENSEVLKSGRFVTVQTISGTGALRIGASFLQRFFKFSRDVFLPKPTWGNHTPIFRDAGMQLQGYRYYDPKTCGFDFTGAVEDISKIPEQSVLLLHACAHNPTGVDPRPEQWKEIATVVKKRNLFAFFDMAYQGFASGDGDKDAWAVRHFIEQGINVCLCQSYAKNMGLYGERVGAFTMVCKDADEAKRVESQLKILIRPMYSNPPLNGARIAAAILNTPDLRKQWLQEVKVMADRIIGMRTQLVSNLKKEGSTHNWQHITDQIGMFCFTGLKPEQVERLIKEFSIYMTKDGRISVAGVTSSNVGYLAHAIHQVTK

[6] = molecular target: T3, proteins of HEK293T cells transiently overexpressing caspase-6 (Homo sapiens, UniProt P62258); conditions: protein YWHAE (P62258)
T3 sequence (P62258 1-255): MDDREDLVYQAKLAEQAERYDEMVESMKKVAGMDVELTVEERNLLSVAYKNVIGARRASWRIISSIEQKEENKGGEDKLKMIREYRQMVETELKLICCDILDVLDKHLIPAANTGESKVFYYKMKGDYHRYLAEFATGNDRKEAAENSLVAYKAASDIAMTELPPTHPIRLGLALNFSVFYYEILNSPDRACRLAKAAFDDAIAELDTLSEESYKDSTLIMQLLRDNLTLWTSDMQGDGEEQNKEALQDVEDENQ

[7] = molecular target: proteins of HEK293T cells transiently overexpressing caspase-6 (Homo sapiens, UniProt Q02790); conditions: exp_ref Probe; protein FKBP4 (Q02790); analysis C6
[8] = molecular target: proteins of HEK293T cells transiently overexpressing caspase-6 (Homo sapiens, UniProt Q9UQE7); conditions: protein SMC3 (Q9UQE7), analysis C6
[9] = molecular target: proteins of HEK293T cells transiently overexpressing caspase-6 (Homo sapiens, UniProt P19013); conditions: Probe; protein KRT4 P19013
[10] = molecular target: proteins of HEK293T cells transiently overexpressing caspase-6 (Homo sapiens, UniProt Q00839); conditions: protein HNRNPU (Q00839)
[11] = molecular target: proteins of HEK293T cells transiently overexpressing caspase-6 (Homo sapiens, UniProt P62244); conditions: exp_ref Probe; protein RPS15A (P62244); analysis C6
[12] = molecular target: proteins of HEK293T cells transiently overexpressing caspase-6 (Homo sapiens, UniProt Q99729); conditions: Probe; protein HNRNPAB Q99729
[13] = molecular target: proteins of HEK293T cells transiently overexpressing caspase-6 (Homo sapiens, UniProt O14979); conditions: exp_ref Probe; protein HNRNPDL (O14979); analysis C6
[14] = molecular target: proteins of HEK293T cells transiently overexpressing caspase-6 (Homo sapiens, UniProt Q96F25); conditions: Probe; protein ALG14 Q96F25
[15] = molecular target: proteins of HEK293T cells transiently overexpressing caspase-6 (Homo sapiens, UniProt P40227); conditions: exp_ref Probe; protein CCT6A (P40227); analysis C6

Chain of proteins of HEK293T cells transiently overexpressing caspase-6 (Homo sapiens, UniProt P12956) (P12956 whole entry): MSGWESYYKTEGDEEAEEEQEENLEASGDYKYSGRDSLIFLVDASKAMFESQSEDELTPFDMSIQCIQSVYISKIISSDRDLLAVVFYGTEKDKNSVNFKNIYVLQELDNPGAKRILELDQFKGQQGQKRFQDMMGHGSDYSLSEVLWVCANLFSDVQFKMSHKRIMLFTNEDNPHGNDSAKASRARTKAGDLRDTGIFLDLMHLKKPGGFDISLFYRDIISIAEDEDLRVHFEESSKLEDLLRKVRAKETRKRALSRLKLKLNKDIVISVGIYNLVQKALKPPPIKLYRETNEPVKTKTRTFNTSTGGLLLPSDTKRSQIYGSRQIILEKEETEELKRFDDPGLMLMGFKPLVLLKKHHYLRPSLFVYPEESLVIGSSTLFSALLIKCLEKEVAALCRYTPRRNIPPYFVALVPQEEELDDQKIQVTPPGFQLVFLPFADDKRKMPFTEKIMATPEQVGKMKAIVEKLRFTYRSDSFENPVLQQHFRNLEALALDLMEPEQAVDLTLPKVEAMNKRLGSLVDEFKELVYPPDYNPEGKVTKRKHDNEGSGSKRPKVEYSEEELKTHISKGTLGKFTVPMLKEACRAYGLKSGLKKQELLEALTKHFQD
Chain of proteins of HEK293T cells transiently overexpressing caspase-6 (Homo sapiens, UniProt Q00839) (Q00839 whole entry): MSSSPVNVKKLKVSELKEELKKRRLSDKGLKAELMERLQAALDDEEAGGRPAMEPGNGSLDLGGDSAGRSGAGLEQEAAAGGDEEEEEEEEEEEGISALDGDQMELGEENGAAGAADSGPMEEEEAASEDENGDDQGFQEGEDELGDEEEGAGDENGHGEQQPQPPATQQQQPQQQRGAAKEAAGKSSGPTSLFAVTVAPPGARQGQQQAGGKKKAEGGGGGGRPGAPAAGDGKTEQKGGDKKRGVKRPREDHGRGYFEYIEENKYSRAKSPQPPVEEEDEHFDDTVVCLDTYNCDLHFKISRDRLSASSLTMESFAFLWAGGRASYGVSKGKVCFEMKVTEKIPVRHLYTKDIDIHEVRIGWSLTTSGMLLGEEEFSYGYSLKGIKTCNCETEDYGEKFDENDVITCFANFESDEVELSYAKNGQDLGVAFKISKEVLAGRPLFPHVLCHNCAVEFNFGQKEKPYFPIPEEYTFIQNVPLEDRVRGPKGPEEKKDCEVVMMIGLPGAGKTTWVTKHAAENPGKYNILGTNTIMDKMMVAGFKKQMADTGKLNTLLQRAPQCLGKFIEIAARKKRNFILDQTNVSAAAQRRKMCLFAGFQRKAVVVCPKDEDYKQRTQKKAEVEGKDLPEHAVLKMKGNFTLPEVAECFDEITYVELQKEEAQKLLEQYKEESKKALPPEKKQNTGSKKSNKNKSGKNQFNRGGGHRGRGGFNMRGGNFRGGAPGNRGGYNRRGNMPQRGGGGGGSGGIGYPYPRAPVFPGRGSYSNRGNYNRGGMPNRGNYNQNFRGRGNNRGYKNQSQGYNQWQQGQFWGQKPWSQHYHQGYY
Chain of proteins of HEK293T cells transiently overexpressing caspase-6 (Homo sapiens, UniProt P21333) (P21333 whole entry): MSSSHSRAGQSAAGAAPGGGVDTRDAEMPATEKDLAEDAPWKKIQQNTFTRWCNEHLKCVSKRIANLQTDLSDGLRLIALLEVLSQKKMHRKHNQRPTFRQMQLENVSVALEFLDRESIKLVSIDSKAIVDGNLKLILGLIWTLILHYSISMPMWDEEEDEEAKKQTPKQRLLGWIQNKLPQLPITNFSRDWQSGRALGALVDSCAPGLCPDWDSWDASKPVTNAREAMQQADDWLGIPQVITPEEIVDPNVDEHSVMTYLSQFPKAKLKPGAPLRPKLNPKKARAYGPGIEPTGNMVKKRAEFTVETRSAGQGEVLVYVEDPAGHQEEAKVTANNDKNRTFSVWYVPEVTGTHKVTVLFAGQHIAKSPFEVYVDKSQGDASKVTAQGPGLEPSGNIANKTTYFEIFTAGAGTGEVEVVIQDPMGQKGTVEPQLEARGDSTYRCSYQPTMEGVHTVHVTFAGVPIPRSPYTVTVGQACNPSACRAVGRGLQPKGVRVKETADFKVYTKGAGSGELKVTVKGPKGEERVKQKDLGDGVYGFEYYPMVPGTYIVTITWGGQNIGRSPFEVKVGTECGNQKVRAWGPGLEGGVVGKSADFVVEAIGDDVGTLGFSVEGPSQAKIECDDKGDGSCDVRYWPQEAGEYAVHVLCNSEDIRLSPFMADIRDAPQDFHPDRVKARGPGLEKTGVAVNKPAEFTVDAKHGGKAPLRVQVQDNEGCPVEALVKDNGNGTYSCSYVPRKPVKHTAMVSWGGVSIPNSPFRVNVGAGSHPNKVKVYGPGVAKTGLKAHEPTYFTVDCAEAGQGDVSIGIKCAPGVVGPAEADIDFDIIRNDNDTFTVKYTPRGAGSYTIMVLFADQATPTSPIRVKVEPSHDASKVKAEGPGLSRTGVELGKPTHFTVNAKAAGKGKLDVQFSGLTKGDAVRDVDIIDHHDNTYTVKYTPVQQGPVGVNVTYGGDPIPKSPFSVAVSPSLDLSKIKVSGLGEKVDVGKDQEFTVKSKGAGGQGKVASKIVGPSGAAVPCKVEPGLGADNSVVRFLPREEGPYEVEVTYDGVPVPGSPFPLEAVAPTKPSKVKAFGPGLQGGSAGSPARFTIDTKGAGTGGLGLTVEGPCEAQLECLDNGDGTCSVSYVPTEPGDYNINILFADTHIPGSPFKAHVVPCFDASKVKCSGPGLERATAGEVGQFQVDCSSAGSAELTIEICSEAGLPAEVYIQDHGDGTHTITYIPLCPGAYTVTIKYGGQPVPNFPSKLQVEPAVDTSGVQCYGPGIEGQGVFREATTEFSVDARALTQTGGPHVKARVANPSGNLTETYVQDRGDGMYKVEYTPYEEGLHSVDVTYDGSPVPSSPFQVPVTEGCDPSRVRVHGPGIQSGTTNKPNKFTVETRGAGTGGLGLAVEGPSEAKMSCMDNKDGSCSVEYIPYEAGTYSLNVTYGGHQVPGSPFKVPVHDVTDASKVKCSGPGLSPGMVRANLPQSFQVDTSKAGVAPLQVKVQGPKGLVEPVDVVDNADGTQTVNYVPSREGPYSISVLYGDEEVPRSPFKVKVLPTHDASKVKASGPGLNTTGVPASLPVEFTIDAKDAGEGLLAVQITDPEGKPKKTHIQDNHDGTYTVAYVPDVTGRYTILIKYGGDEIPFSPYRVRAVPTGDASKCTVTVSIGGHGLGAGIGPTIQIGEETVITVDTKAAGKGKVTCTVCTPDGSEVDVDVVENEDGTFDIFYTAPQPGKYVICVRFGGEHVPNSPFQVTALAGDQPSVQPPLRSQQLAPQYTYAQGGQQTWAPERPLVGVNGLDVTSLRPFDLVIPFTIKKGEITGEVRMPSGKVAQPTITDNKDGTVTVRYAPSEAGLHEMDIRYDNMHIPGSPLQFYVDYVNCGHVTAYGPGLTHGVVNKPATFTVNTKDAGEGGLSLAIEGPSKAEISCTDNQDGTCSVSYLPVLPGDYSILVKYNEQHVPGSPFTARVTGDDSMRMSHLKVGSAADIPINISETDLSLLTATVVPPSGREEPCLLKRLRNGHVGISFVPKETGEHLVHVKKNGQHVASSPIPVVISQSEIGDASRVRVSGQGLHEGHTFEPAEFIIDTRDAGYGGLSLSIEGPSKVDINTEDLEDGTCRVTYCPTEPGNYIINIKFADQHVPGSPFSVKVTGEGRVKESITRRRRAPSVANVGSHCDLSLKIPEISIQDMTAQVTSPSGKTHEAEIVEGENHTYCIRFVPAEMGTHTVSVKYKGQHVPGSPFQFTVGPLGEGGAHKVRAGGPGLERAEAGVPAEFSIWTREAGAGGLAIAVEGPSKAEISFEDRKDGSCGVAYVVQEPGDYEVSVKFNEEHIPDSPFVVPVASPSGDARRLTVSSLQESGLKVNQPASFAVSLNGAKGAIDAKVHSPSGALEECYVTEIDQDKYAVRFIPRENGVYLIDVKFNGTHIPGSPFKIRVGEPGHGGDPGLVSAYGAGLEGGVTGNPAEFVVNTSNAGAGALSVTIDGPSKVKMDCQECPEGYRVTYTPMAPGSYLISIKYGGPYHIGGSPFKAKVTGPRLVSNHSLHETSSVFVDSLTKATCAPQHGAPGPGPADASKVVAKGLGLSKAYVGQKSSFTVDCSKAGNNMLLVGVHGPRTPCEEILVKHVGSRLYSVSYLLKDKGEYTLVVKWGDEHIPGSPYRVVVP
Chain of proteins of HEK293T cells transiently overexpressing caspase-6 (Homo sapiens, UniProt Q96F25) (Q96F25 whole entry): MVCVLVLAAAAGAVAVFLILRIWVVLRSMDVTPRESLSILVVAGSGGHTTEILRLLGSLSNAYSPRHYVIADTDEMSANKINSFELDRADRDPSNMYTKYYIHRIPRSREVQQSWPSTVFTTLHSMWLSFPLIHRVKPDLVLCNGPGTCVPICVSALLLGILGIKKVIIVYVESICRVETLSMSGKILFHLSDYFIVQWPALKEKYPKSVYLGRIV
Chain of proteins of HEK293T cells transiently overexpressing caspase-6 (Homo sapiens, UniProt P40939) (P40939 37-763): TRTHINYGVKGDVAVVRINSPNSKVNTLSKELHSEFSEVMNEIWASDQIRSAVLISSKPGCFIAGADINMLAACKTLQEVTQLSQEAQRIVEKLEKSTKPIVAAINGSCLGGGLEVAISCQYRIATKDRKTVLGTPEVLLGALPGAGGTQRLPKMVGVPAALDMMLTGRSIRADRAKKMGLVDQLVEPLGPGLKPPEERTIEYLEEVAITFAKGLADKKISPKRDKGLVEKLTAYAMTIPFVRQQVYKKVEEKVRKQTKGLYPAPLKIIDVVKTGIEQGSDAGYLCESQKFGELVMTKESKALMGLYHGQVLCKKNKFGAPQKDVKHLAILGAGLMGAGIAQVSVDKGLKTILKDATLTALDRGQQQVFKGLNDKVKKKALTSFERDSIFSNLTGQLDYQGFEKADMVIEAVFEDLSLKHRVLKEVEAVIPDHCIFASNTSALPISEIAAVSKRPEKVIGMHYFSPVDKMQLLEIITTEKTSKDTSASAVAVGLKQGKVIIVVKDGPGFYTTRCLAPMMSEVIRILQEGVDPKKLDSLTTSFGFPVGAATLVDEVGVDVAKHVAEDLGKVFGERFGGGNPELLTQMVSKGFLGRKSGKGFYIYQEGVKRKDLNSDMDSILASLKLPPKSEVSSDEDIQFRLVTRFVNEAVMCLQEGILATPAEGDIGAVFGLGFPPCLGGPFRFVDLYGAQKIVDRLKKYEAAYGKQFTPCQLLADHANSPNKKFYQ

## C#CCOc1ccc([C@@H]2C[C@@H](C(=O)Nc3ccc(OC(F)(F)F)cc3)CN(S(=O)(=O)C=C)C2)cc1 (relative stereo) [13-t]
[1]
  enrich.exp.med: 0.4567
[2]; exp_ref Probe, analysis C6
  enrich.exp.med: 1.036
[2]
  enrich.exp.med.lin: 2.05
  enrich.exp.med.log2: 1.036
[3]
  enrich.exp.med: -0.321
[4]; Probe, protein FLNA P21333
  enrich.exp.med: -0.9107
[4]; protein FLNA (P21333)
  enrich.exp.med.lin: 0.5319
  enrich.exp.med.log2: -0.9107
[5]; Probe, protein GOT2 P00505
  enrich.exp.med: -0.8861
[5]; protein GOT2 (P00505)
  enrich.exp.med.lin: 0.5411
  enrich.exp.med.log2: -0.8861
[6]; exp_ref Probe, analysis C6
  enrich.exp.med: 0.9895
[6]
  enrich.exp.med.lin: 1.986
  enrich.exp.med.log2: 0.9895
[7]
  enrich.exp.med: 0.8165
[8]; Expt Probe
  enrich.exp.med.lin: 14.5893
  enrich.exp.med.log2: 3.867
[8]; exp_ref Probe
  enrich.exp.med: 3.867
[9]
  enrich.exp.med: -4.171
[10]; exp_ref Probe, analysis C6
  enrich.exp.med: 0.5889
[10]
  enrich.exp.med.lin: 1.5041
  enrich.exp.med.log2: 0.5889
[11]
  enrich.exp.med: 0.1255
[12]
  enrich.exp.med: -0.4603
[13]
  enrich.exp.med: -0.3286
[14]
  enrich.exp.med: -1.074
[15]
  enrich.exp.med: 0.2516
